{"source": "patent US10660884B2", "about": "“Phosphonate-chloroquine conjugates and methods using same” (University of Rochester, priority 2015, dated 2020)", "key": {"[1]": {"test_system": "WT mouse bone marrow (BM) cells (OC precursors)", "experiment": "Osteoclastogenesis assay: OC formation on plastic, TRAP staining", "format": "cell-based", "settings": "for Inhibition of osteoclast activity by osteoclast staining: WT mouse BM cells, images FIGS. 11-12"}, "bone resorption": {"test_system": "bone resorption", "settings": "cited from earlier work; for Prevention of bone resorption in mice: literature report"}, "TRAF3": {"test_system": "TRAF3", "experiment": "Western blot of RANKL-induced TRAF3 degradation", "format": "cell-based, mouse", "settings": "3 μM, 8 hrs, Western blotting", "method": "WT mouse BM cells, cultured with M-CSF as in FIG. 6, were treated with vehicle, BTCQ, CQ or NC-BTCQ (3 μM) for 8 hrs. Cell lysates were used to test TRAF3 and actin protein levels by Western blotting.\nCultured cells were lysed with M-Per mammalian protein extraction reagent. 10-20 μg protein were loaded onto 10% SDS-PAGE gels, transferred onto polyvinylidene difluoride membranes, incubated with primary and secondary Abs, followed by exposure to ECL substrate. Signals were analyzed using a Bio-Rad imaging system."}, "[2]": {"settings": "literature; cited from earlier work"}}, "data": [{"smiles": "CCN(CC)CCCC(C)N(C(=O)OCCCCCCCC(=O)NC(P(=O)(O)O)P(=O)(O)O)c1ccnc2cc(Cl)ccc12", "note": "(racemic) [UR-11, rac-(13-(7-chloroquinolin-4-yl)-18-ethyl-14-methyl-3,12-dioxo-11-oxa-2,13,18-triazaicosane-1,1-diyl)diphosphonic acid]", "values": [{"measurement": "Inhibition of osteoclast activity by osteoclast staining", "setting": "[1]", "result": "more effective at inhibiting osteoclast activity than the non cleavable amide UR-12"}]}, {"smiles": "CCN(CC)CCCC(C)Nc1ccnc2cc(Cl)ccc12.O=P(O)(O)O.O=P(O)(O)O", "note": "(stereo not shown) [CQ, 7-chloro-4-[[4-(diethylamino)-1-methylbutyl]amino] quinoline phosphate (1:2)]", "values": [{"measurement": "OC formation (OC numbers after TRAP staining)", "setting": "[1]; BM cells on plastic, M-CSF 2 days, then RANKL plus compound 3 more days", "result": "inhibited OC formation"}, {"measurement": "Inhibition of osteoclast activity by osteoclast staining", "setting": "[1]", "result": "more effective at inhibiting osteoclast activity than HCQ"}, {"measurement": "Concentration at which OC formation was inhibited (BTCQ more effective than CQ)", "setting": "[1]; on plastic, FIG. 2A", "result": 3, "unit": "µM"}, {"measurement": "Dose that effectively blocks PTH-induced marrow fibrosis", "setting": "bone resorption; Xiu Y et al., 2014", "result": 50, "unit": "mg/kg"}, {"measurement": "Prevention of bone resorption in mice", "setting": "bone resorption", "result": "prevents bone resorption and osteoporosis"}, {"measurement": "Prevention of RANKL-induced degradation of TRAF3", "setting": "TRAF3", "result": "unlike CQ and BTCQ, NC-BTCQ does not prevent RANKL-induced degradation of TRAF3"}]}, {"smiles": "CCN(CCO)CCCC(C)Nc1ccnc2cc(Cl)ccc12", "note": "(stereo not shown) [HCQ, hydroxychloroquine]", "values": [{"measurement": "Inhibition of osteoclast activity by osteoclast staining", "setting": "[1]", "result": "CQ and BTCQ are more effective at inhibiting osteoclast activity than HCQ"}, {"measurement": "Prevention of bone resorption in mice", "setting": "bone resorption", "result": "does not prevent bone resorption in mice"}, {"measurement": "Blindness, share of patients", "setting": "[2]", "result": "0.5-1%"}]}]}
